Results from article PMC10485906, “Development of a Dihydroquinoline–Pyrazoline GluN2C/2D-Selective Negative Allosteric Modulator of the N-Methyl-D-aspartate Receptor” (ACS Chemical Neuroscience, 2023).

How the values were obtained:
GluN1/GluN2D = GluN1/GluN2D (Rattus norvegicus, UniProt Q62645); set-up: GluN2B (NM_012574.1), GluN2C (NM_012575.3), and GluN2D (NM_022797.2) were provided by; expressed in transfected cells; host or cells: Xenopus laevis oocytes (cRNA injection); details: cited from earlier work
GluA1 = target: T1, GluA1 (Rattus norvegicus, UniProt P19490); assay: Off-target, oocytes, GluA1; assay type: cell-based; details: 1 µM compound; 100 µM glutamate
T1 construct: expressed in transfected cells; host or cells: Xenopus oocytes (cRNA injection)
Protocol: Analysis of Off-target Actions
Compound (S)-(-)-2i was tested at 1 µM for actions at glycine-activated GluN1/GluN3A (human GluN1-F484A,T518L/GluN3A referred to a GluN1-FA,TL/GluN3A) and rat GluN1-4a/GluN3B in the presence of 0.5 µM CGP-78608. cRNA injection ratios for GluN1/GluN3 were 1:2. Compound (S)-(-)- 2i was also tested for actions at AMPA (rat GluA1, rat GluA2, human GluA3-L531Y), kainate (rat GluK2), nicotinic acetylcholine (rat α7 and α4β2, cRNA ratio 1:1), GABAA (rat α1β2γ2S, cRNA ratio 1:1:1), GABAC (rat ρ1), glycine (rat α1), and purinergic (human P2X) receptors expressed in Xenopus oocytes. cRNA encoding the receptor subunits was synthesized from linear template cDNA using the mMessage mMachine kit (Ambion). Oocytes were injected with 1-5 ng cRNA in a 50 nL volume and incubated in Barth's solution at 15°C for 2-5 days prior to recording. GluK2-expressing oocyte were incubated in 1 mg/ml (10 µM) concanavalin-A for 10 min prior to recording. The cDNAs encoding GABAC and glycine subunits were provided by Dr. D. Weiss (University of Texas Health Science Center at San Antonio). cDNAs encoding nicotinic acetylcholine receptor subunits were provided by Drs. […]
GABA. […] Responses in presence of test compound were expressed as a percent of control. […]

Sequence of GluN1/GluN2D (Q62645 28-1323, other chains not shown): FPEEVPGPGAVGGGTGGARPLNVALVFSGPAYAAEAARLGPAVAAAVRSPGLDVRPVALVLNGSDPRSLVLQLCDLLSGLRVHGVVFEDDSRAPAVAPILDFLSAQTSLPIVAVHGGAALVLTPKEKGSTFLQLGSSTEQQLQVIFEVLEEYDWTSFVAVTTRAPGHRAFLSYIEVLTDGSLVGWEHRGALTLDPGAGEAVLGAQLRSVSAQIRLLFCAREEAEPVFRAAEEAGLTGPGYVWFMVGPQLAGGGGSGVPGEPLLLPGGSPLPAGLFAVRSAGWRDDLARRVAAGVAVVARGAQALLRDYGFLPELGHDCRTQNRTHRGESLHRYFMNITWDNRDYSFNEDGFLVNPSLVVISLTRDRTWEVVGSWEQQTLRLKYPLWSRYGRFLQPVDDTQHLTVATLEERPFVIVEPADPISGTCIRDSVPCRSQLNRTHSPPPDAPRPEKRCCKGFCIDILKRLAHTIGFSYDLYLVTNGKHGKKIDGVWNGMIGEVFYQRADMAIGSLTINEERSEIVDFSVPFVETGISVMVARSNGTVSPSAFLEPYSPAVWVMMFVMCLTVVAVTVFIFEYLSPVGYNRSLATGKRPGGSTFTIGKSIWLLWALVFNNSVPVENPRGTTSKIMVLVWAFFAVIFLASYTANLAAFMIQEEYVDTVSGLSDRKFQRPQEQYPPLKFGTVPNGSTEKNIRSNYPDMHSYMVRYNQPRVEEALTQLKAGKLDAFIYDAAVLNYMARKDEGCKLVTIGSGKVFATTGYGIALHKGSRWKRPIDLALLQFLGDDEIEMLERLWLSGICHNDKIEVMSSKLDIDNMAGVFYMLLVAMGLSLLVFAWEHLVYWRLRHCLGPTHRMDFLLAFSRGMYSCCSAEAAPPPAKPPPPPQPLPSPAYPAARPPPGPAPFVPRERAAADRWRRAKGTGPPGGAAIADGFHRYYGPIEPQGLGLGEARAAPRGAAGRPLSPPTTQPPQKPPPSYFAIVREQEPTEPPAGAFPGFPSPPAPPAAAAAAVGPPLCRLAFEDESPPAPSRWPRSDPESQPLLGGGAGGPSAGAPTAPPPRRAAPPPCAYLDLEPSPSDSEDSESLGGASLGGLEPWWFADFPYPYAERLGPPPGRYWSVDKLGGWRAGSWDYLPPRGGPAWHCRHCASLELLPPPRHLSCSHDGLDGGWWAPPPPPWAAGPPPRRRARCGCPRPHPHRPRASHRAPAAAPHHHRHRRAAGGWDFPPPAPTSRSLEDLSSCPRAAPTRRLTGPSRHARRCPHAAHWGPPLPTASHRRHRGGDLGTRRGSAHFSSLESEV
T1 sequence (P19490 19-907): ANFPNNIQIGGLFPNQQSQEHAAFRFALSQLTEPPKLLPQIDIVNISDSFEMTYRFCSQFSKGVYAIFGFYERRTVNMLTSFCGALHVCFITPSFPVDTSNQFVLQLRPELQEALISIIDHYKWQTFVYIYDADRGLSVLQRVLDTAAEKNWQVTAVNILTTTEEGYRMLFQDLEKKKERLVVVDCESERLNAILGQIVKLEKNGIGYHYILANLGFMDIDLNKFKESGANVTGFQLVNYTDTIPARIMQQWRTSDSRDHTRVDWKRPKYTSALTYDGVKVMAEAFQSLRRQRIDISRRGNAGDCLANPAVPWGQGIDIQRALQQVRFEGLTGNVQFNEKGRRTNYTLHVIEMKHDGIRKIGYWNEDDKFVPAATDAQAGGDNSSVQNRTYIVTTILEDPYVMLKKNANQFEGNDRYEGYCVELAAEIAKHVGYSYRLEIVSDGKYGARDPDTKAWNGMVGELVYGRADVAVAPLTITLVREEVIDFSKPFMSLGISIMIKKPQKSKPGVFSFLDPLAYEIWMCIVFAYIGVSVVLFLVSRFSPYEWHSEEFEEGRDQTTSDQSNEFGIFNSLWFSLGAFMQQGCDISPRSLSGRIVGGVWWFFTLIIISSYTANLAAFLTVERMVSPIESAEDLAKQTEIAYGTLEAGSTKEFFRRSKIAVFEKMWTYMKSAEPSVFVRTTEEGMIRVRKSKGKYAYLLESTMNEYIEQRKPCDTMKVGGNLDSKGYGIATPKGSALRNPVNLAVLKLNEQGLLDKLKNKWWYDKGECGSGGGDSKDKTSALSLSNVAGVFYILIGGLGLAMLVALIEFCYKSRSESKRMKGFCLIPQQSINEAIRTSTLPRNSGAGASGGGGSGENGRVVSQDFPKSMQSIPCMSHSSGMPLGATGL

Structure (SMILES) | I 30 μM / I control GluN2D (GluN1/GluN2D; 30 μM, reproduced for comparison) | Selectivity 2A IC50 / 2D IC50 (GluN1/GluN2D; GluN2D over GluN2A) [fold] | Selectivity 2B IC50 / 2D IC50 (GluN1/GluN2D; GluN2D over GluN2B) [fold] | % control GluA1 (GluA1) [%]
O=C(O)CCC(=O)N1N=C(c2c(-c3ccc(Cl)cc3)c3ccccc3[nH]c2=O)CC1c1ccc(Cl)cc1 (stereo not shown) [2a] | 2.0 ± 1.0 (2,5) % | 48 | 50 | 
O=C(O)CC(F)(F)C(=O)N1N=C(c2c(-c3ccc(Cl)cc3)c3ccccc3[nH]c2=O)C[C@H]1c1ccc(Cl)cc1 [(S)-(−)-2i] |  |  |  | 100 ± 2.0
